Literature values in patent US20030158162A1, “Methods of treating ophthalmic disorders with epoxy-steroidal aldosterone receptor antagonists” (priority 2001, published 2003).

Conditions: Klin Monatsbl Augenheilkd 176(3):445-6 (1980)

CC(=O)S[C@@H]1CC2=CC(=O)CC[C@]2(C)[C@H]2CC[C@@]3(C)[C@@H](CC[C@@]34CCC(=O)O4)[C@H]12 [Spironolactone]
effect on IOP in glaucoma patients: lower IOP
